9 substances from patent publication US20230263822A1, “MODULATION OF FACTOR 11 EXPRESSION” (Ionis Pharmaceuticals, Inc., priority 2008, published 2023) can be followed below.

In one data set the test system is human Factor 11 mRNA. Kind of data set: Antisense inhibition of human Factor 11 in HepG2 cells, lipofectin, 75 nM (Example 1). In kind it is cell-based. Particulars: 75 nM antisense oligonucleotide, ~24 h, relative to untreated control cells, gapmers targeted to SEQ ID NO: 1. An outline of the steps:
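HepG2 cells transfected via lipofectin with 75 nM antisense oligonucleotide (5-10-5 MOE gapmers, 20-mers, phosphorothioate, 5-methylcytidines), treated ~24 h. Factor 11 mRNA quantified by real-time PCR, normalised to RIBOGREEN total RNA; percent inhibition versus untreated cells.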

The next data set has as its system Factor 11 protein. Kind of data set: Factor 11 protein in monkey plasma by sandwich ELISA (Example 45). It counts as in vivo, cynomolgus monkeys. Conditions: escalating dose regimen; for Inhibition of Factor 11 protein relative to the PBS control: plasma ELISA. Here is the method: (§1) Groups, each consisting of two male and three female monkeys, were injected subcutaneously with ISIS 416838, ISIS 416850, ISIS 416858, ISIS 416864, or ISIS 417002 in escalating doses. Antisense oligonucleotide was administered to the monkeys at 5 mg/kg three times per a week for week 1; 5 mg/kg twice per week for weeks 2 and 3; 10 mg/kg three times per week for week 4; 10 mg/kg twice per week for weeks 5 and 6; 25 mg/kg three times per week for week 7; and 25 mg/kg twice per week for weeks 8, 9, 10, 11, and 12. One control group, consisting of two male and three female monkeys, was injected subcutaneously with PBS according to the same dosing regimen. An additional experimental group, consisting of two male and three female monkeys, was injected subcutaneously with ISIS 416850 in a chronic, lower dose regimen. Antisense oligonucleotide was administered to the monkeys at 5 mg/kg three times per week for week 1; 5 mg/kg twice per week for week 2 and 3; 10 mg/kg three times per week for week 4; and 10 mg/kg twice per week for weeks 5 to 12. Body weights were measured weekly. Blood samples were collected 14 days and 5 days before the start of treatment and subsequently once per week for Factor 11 protein activity analysis in plasma, fibrinogen measurement, PT and aPTT measurements, bleeding times, and measurement of various hematologic factors. On day 85, the monkeys were euthanized by exsanguination while under deep anesthesia, and organs harvested for further analysis.
Plasma samples from all monkey groups taken on different days were analyzed by a sandwich-style ELISA assay (Affinity Biologicals Inc.) using an affinity-purified polyclonal anti-Factor 11 antibody as the capture antibody and a peroxidase-conjugated polyclonal anti-Factor 11 antibody as the detecting antibody. Monkey plasma was diluted 1:50 for the assay. Peroxidase activity was expressed by incubation with the substrate o-phenylenediamine. The color produced was quantified using a microplate reader at 490 nm and was considered to be proportional to the concentration of Factor 11 in the samples.
The results are presented in Table 115, expressed as percentage reduction relative to that of the PBS control.

Data set [1] can be described thus: Tolerability in Sprague-Dawley rats: liver function (Example 35). Particulars: plasma, 50 mg/kg s.c. twice per week for 6 weeks.
Data set [2] is described as follows: Kidney function, urine protein to creatinine ratio in cynomolgus monkeys (Example 45). It counts as in vivo. The procedure: as §1
To evaluate the impact of ISIS oligonucleotides on kidney function, urine samples were collected.

Data set [3] can be described thus: Body and organ weights of cynomolgus monkeys (Example 45).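 As to Organ weights, Kidney: absolute organ weight in grams.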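 As to Organ weights, Liver: absolute organ weight in grams.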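 As to Organ weights, Spleen: absolute organ weight in grams.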 It counts as in vivo. Particulars: for Organ weights, Kidney / Organ weights, Liver / Organ weights, Spleen: after the animals were euthanized; for body weights: escalating dose regimen. The procedure:
as §1
Body weights were taken once weekly throughout the dosing regimen. […] Organ weights were taken after the animals were euthanized and livers, kidneys and spleens were harvested and weighed. […] The ISIS oligonucleotide, ISIS 416850, given with the chronic dose regimen is distinguished from the other oligonucleotides with an asterisk (*).

The nature of data set [4]: Tolerability in CD1 mice: hematology assays (Example 41). Conditions: 50 mg/kg s.c. twice per week for 6 weeks, blood.
The nature of data set [5]: Tolerability in CD1 mice: body weight and organ weight (Example 41). Conditions: 50 mg/kg s.c. twice per week for 6 weeks; for body weight: increase in grams over the PBS control weight taken before the start of treatment; for Kidney weight / Liver weight / Spleen weight: percentage of the body weight.

Strand notation (5' to 3'): a small letter for the sugar, then the base; units joined by * are phosphorothioate-linked, units joined directly phosphodiester-linked; [ ] holds rarer units or linkages, { } end groups; capitals alone tell only the bases. e = 2'-O-(2-methoxyethyl) (MOE); [5mC] = 5-methylcytosine; d = 2'-deoxy (DNA)

As a reminder, the % inhibition is the relative decrease from the control value, in per cent. On to “412206 (antisense e[5mC]*e[5mC]*eG*eT*eG*d[5mC]*dA*dT*d[5mC]*dT*dT*dT*d[5mC]*dT*dT*eG*eG*e[5mC]*eA*eT) [compound 412206]”, for which the “% inhibition” value in the data set on human Factor 11 mRNA is 87%.

Consider “412223 (antisense ACAGTTTCTGGCAGGCCTCG; 5-10-5 MOE gapmer, further chemistry not given here) [compound 412223]”, for which the “% inhibition” value in the data set on human Factor 11 mRNA is 84%.

Turning to “412224 (antisense GCATTGGTGCACAGTTTCTG; 5-10-5 MOE gapmer, further chemistry not given here) [compound 412224]”, the “% inhibition” value with human Factor 11 mRNA turned out to be 87%.

For the substance “412225 (antisense GCAGCGGACGGCATTGGTGC; 5-10-5 MOE gapmer, further chemistry not given here) [compound 412225]”, in the data set on human Factor 11 mRNA, the “% inhibition” value is recorded as 86%.

Take “413482 (antisense GGACGGCATTGGTGCACAGT; 5-10-5 MOE gapmer, further chemistry not given here) [compound 413482]”: the “% inhibition” value in the data set with human Factor 11 mRNA is 85%.

As for “ISIS 416838: MOE gapmer, nucleobases 1018 to 1042 of SEQ ID NO: 1 (Table 6) (antisense GCAACCGGGATGATGAGTGC; MOE gapmer, wing and gap sizes not given here)”, the “Inhibition of Factor 11 protein relative to the PBS control” value in the data set with Factor 11 protein (day 8) is 3%; in the data set on Factor 11 protein (day 15) it was 4%; in the data set on Factor 11 protein (day 22) it was 5%; with Factor 11 protein (day 29) it was 8%; in the data set on Factor 11 protein (day 36) it was 11%; in the data set on Factor 11 protein (day 43), 5%. Moreover, the “Inhibition of Factor 11 protein relative to the PBS control” value in the data set with Factor 11 protein (day 50) was determined as 8%; in the data set on Factor 11 protein (day 57), 10%; with Factor 11 protein (day 64) it was 11%; in the data set on Factor 11 protein (day 71) it was 12%; in the data set with Factor 11 protein (day 78), 10%; in the data set on Factor 11 protein (day 85), 10%. Moreover, the “Inhibition of Factor 11 protein relative to the PBS control” value in the data set on Factor 11 protein (day −5) and in the data set on Factor 11 protein (day −14) was 0% in each case. For the same substance, the ALT in data set [1] is given as 5 IU/L. This substance gave an AST in data set [1] of 2 IU/L. Moreover, the Albumin in data set [1] was found to be 2. In addition, the Bilirubin in data set [1] is reported as 4 mg/dL. Besides, the “urine protein to creatinine ratio” value in data set [2] (Day 80) and in data set [2] (Day 84) was 0.13 each time. In addition, the “Organ weights, Kidney” value in data set [3] is recorded as 12 g. Also, the “Organ weights, Liver” value in data set [3] is 63 g. In addition, in data set [3], the “Organ weights, Spleen” value was 5 g. The body weights in data set [3] (day 1) is recorded as 2720 g; in data set [3] (day 8), 2592 g; in data set [3] (day 15) it was 2642 g; in data set [3] (day 22), 2702 g; in data set [3] (day 29) it was 2689 g; in data set [3] (day 36), 2708 g. Further, the body weights in data set [3] (day 43) stood at 2700 g; in data set [3] (day 50), 2731 g; in data set [3] (day 57) it was 2737 g; in data set [3] (day 64) it was 2746 g; in data set [3] (day 71), 2869 g; in data set [3] (day 78) it was 2766 g.

For “ISIS 416858: MOE gapmer, nucleobases 1275 to 1318 of SEQ ID NO: 1 (Table 8) (antisense ACGGCATTGGTGCACAGTTT; MOE gapmer, wing and gap sizes not given here)”, the “Factor 11 protein levels in plasma” value in the data set on Factor 11 protein (cynomolgus monkeys, ELISA) is listed as “time-dependent decrease in protein levels”. Besides, the “Inhibition of Factor 11 protein relative to the PBS control” value came out at 6% with Factor 11 protein (day 8); 16% with Factor 11 protein (day 15); 23% in the data set with Factor 11 protein (day 22); 28% with Factor 11 protein (day 29); 35% with Factor 11 protein (day 36); 39% in the data set on Factor 11 protein (day 43). Moreover, the “Inhibition of Factor 11 protein relative to the PBS control” value was 49% with Factor 11 protein (day 50); 60% with Factor 11 protein (day 57); 68% in the data set with Factor 11 protein (day 64); 71% in the data set on Factor 11 protein (day 71); 73% with Factor 11 protein (day 78); 78% in the data set on Factor 11 protein (day 85). In addition, the “Inhibition of Factor 11 protein relative to the PBS control” value in the data set with Factor 11 protein (day −5) and with Factor 11 protein (day −14) was 0% throughout. In data set [1], this substance returned an ALT of 13 IU/L. The AST in data set [1] stood at 4 IU/L. Besides, in data set [1], the Albumin was determined as 2. The Bilirubin in data set [1] is listed as 4 mg/dL. The results for the “urine protein to creatinine ratio” value in data set [2] (Day 80) and in data set [2] (Day 84) were 0.10 and 0.07, respectively. For the same substance, in data set [3], the “Organ weights, Kidney” value is 13 g. The “Organ weights, Liver” value in data set [3] came to 60 g. The “Organ weights, Spleen” value in data set [3] stood at 12 g. For the same substance, the “Spleen weight” value in data set [3] (cynomolgus monkeys, compared to the PBS control) was “shows increase in spleen weight”. For the same substance, the body weights in data set [3] (day 1) is on record as 2912 g; in data set [3] (day 8), 2740 g; in data set [3] (day 15) it was 2760 g; in data set [3] (day 22), 2800 g; in data set [3] (day 29), 2763 g; in data set [3] (day 36) it was 2584 g. Also, the body weights in data set [3] (day 43) was determined as 2607 g; in data set [3] (day 50), 2646 g; in data set [3] (day 57), 2617 g; in data set [3] (day 64), 2618 g; in data set [3] (day 71) it was 2865 g; in data set [3] (day 78), 2713 g.

As for “ISIS 445522: 5-8-5 or 6-8-6 MOE microwalk gapmer (Table 44) (antisense eG*e[5mC]*eA*e[5mC]*eA*dG*dT*dT*dT*d[5mC]*dT*dG*dG*e[5mC]*eA*eG*eG*e[5mC])”, in data set [4], the HCT was determined as 49%, the Lymphocyte stood at 3997, the Neutrophil is 698 and the Platelets came out at 1005. In data set [4], this substance had an RBC of 9.7, a WBC of 5 and a hemoglobin of 14.6 g/dL. In data set [5], the body weight stood at 11 g, the Kidney weight is listed as 1.7%, the Liver weight is reported as 6% and the Spleen weight came to 0.4%.

In data set [4], “ISIS 445531: 5-8-5 or 6-8-6 MOE microwalk gapmer (Table 44) (antisense eG*eG*e[5mC]*eA*eT*dT*dG*dG*dT*dG*d[5mC]*dA*d[5mC]*eA*eG*eT*eT*eT)” displayed an HCT of 48%, a Lymphocyte of 6125, a Neutrophil of 2341 and a Platelets of 996. Besides, in data set [4], the RBC is 9.4, the WBC is listed as 9 and the hemoglobin is 14.5 g/dL. Besides, in data set [5], the body weight stood at 10 g, the Kidney weight is on record as 1.5%, the Liver weight stood at 6% and the Spleen weight came to 0.5%.
